From patent US8604053B2, “TRPV1 antagonists” (AbbVie Inc., priority 2008, dated 2013)

Target: T1, human TRPV1 (Homo sapiens, UniProt Q8NER1)
T1 construct: expressed in transfected cells; host or cells: HEK293-F cells, transient transfection
Experiment: Acid activation assay, ratiometric calcium imaging
Type: cell-based
Settings: HEK293-F cells expressing human TRPV1, Example 56 at 3 μM; for block of TRPV1-mediated increase in intracellular calcium concentration in response to pH 5.5: acid pH 5.5; for block of TRPV1-mediated increase in intracellular calcium concentration in response to capsaicin: capsaicin 1 μM
Description: The differential effects of TRPV1 antagonists on capsaicin- or acid-induced responses were verified by ratiometric calcium imaging. Transiently transfected HEK293-F cells expressing human TRPV1 were incubated with 5 μM Fura-2AM for 30 minutes at 37° C. Intracellular calcium concentration was measured on an imaging system consisting of the X-Cite™ 120 Fluorescence Illumination System (EXFO) and a Digital Camera (C4742-95, Hamamatsu Photonics) connected to an Olympus 1×71 microscope. Through the control of Slide Book 4.2 software, fluorescence was measured during excitation at 340 and 380 nm; the ratio of the fluorescence at both excitation wavelengths (F340/F380) was monitored. D-PBS, pH 7.4 (Invitrogen, catalog no. 14287) was used as the extracellular solution. Acidic buffer was prepared by titrating D-PBS, pH 7.4 with 7 N HCl to pH 5.5. Agonists and antagonists were prepared in the pH 7.4 or 5.5 solutions. Rapid solution switch was achieved by using a ValveLink system.
Over the time 1250-second course, the cells were challenged sequentially with solutions containing Example 56 (3 μM), Example 56 (3 μM) plus capsaicin (1 μM), Example 56 (3 μM) plus acid (pH 5.5), or acid (pH 5.5) alone. The black bars above the traces designate addition and duration of solution applications. Spaces between horizontal bars represent periods in which cells were perfused with D-PBS, pH 7.4 alone. […]

T1 sequence (Q8NER1 whole entry): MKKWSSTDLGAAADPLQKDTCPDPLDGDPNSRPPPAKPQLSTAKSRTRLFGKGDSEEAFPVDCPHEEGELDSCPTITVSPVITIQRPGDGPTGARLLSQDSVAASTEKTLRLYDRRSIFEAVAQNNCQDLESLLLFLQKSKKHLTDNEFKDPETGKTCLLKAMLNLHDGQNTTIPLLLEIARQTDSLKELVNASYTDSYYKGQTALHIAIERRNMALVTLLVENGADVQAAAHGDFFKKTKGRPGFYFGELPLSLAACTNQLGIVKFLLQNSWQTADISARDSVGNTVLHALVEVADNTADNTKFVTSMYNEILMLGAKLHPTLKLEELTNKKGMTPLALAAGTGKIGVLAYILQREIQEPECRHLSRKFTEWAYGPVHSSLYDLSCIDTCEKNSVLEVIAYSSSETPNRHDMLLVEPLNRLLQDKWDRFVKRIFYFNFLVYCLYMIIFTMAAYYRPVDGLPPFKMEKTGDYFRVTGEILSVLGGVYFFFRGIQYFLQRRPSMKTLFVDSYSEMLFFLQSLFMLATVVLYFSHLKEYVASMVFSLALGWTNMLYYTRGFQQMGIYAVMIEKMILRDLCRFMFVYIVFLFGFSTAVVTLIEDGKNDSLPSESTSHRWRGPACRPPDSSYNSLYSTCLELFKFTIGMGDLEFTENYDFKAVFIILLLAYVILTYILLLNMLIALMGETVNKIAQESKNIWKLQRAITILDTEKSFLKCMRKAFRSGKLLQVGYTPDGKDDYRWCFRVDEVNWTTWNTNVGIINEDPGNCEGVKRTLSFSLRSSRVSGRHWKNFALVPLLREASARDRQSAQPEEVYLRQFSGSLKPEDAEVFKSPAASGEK

Substance | block of TRPV1-mediated increase in intracellular calcium concentration in response to pH 5.5 | block of TRPV1-mediated increase in intracellular calcium concentration in response to capsaicin
N-[(4R)-2,2-diethyl-6-fluoro-3,4-dihydro-2H-chromen-4-yl]-N-(3-methylisoquinolin-5-yl)urea [Example 56] | did not completely block | completely blocked
N-[(4R)-2,2-diethyl-8-fluoro-3,4-dihydro-2H-chromen-4-yl]-N-(3-methylisoquinolin-5-yl)urea [Example 62] | did not completely block | completely blocked
